The source of these data is US12344597B2, “Alkoxy-substituted pyridinyl derivatives as LPA1 receptor antagonists and their use in the treatment of fibrosis” (IDORSIA PHARMACEUTICALS LTD, priority 2018, dated 2025).

Sequence of human LPA1 receptor (Q92633 whole entry, the tested form may be a part): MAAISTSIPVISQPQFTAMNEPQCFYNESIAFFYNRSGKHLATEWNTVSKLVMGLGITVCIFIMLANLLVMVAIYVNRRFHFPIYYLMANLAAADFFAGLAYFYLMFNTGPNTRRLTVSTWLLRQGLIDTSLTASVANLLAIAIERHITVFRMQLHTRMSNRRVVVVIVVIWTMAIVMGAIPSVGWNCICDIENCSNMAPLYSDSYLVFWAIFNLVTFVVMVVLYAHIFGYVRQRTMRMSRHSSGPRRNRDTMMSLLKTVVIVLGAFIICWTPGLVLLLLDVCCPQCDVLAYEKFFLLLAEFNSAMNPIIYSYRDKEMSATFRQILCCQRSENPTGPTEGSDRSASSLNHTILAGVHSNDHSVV

The target in this assay is human LPA1 receptor (Homo sapiens (Human), UniProt Q92633). As to the kind of experiment: Beta-arrestin recruitment assay to determine IC50 values for human LPAR1. It counts as cell-based. The note with it: antagonist mode, Tango EDG2-bla U2OS cells, LPA 18:1 500 nM final. In short, it runs like this:
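Antagonist IC50 = concentration giving 50% inhibition of maximal LPA response. Read-out is beta-lactamase reporter activity after arrestin-protease recruitment in U2OS cells bearing LPA1-TEV-Gal4-VP16 construct; cells pre-incubated 20 h, 37 °C, 5% CO2.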
On to `Cc1ccc(NC(=O)C2(c3ccccc3C(C)C)CN(C(=O)OCC(C)(C)C(=O)O)C2)c(OC(F)F)n1` [Ex 14-10, 3-((3-((2-(difluoromethoxy)-6-methylpyridin-3-yl)carbamoyl)-3-(2-isopropylphenyl)azetidine-1-carbonyl)oxy)-2,2-dimethylpropanoic acid], for which the IC50 (commonly the concentration needed to halve the response being measured) amounted to 4 nM.

In turn, `COC(=O)C1(COC(=O)N2CC(C(=O)Nc3ccc(C)nc3OC(F)F)(c3ccccc3C(C)C)C2)CC1` [Ex 14-11, (1-(methoxycarbonyl)cyclopropyl)methyl 3-((2-(difluoromethoxy)-6-methylpyridin-3-yl)carbamoyl)-3-(2-isopropylphenyl)azetidine-1-carboxylate] registered a half-inhibitory concentration (IC50) of 127 nM.

`Cc1ccc(NC(=O)C2(c3ccccc3C(C)C)CN(C(=O)OCC3(C(=O)O)CC3)C2)c(OC(F)F)n1` [Ex 14-12, 1-(((3-((2-(difluoromethoxy)-6-methylpyridin-3-yl)carbamoyl)-3-(2-isopropylphenyl)azetidine-1-carbonyl)oxy)methyl)cyclopropane-1-carboxylic acid] had a 50% inhibitory concentration (IC50) of 5 nM.

`COC(=O)C1(COC(=O)N2CC(C(=O)Nc3ccc(C)nc3OC(F)F)(c3ccccc3C(C)C)C2)COC1` [Ex 14-13, (3-(methoxycarbonyl)oxetan-3-yl)methyl 3-((2-(difluoromethoxy)-6-methylpyridin-3-yl)carbamoyl)-3-(2-isopropylphenyl)azetidine-1-carboxylate] returned a half-inhibitory concentration (IC50) of 29 nM.

On to `Cc1ccc(NC(=O)C2(c3ccccc3C(C)C)CN(C(=O)OCC3(C(=O)O)COC3)C2)c(OC(F)F)n1` [Ex 14-14, 3-(((3-((2-(difluoromethoxy)-6-methylpyridin-3-yl)carbamoyl)-3-(2-isopropylphenyl)azetidine-1-carbonyl)oxy)methyl)oxetane-3-carboxylic acid], for which the 50% inhibitory concentration (IC50) is 30 nM.

In turn, `CCOC(=O)CNS(=O)(=O)N1CC(C(=O)Nc2ccc(C)nc2OC(F)F)(c2ccccc2C(C)C)C1` [Ex 15-1, Ethyl ((3-((2-(difluoromethoxy)-6-methylpyridin-3-yl)carbamoyl)-3-(2-isopropylphenyl)azetidin-1-yl)sulfonyl)glycinate] came in with a 50% inhibitory concentration (IC50) of 5 nM.

With `Cc1ccc(NC(=O)C2(c3ccccc3C(C)C)CN(S(=O)(=O)NCC(=O)O)C2)c(OC(F)F)n1` [Ex 15-2, ((3-((2-(difluoromethoxy)-6-methylpyridin-3-yl)carbamoyl)-3-(2-isopropylphenyl)azetidin-1-yl)sulfonyl)glycine], the IC50 is 7 nM.

`Cc1ccc(NC(=O)C2(c3ccccc3C(C)C)CN(S(=O)(=O)NCCO)C2)c(OC(F)F)n1` [Ex 15-3, N-(2-(difluoromethoxy)-6-methylpyridin-3-yl)-1-(N-(2-hydroxyethyl)sulfamoyl)-3-(2-isopropylphenyl)azetidine-3-carboxamide] displayed an IC50 of 11 nM. This IC50 is about 1.6-fold higher than that of the compound before.

For the compound `Cc1ccc(NC(=O)C2(c3ccccc3C(C)C)CN(S(=O)(=O)NCCF)C2)c(OC(F)F)n1` [Ex 15-4, N-(2-(difluoromethoxy)-6-methylpyridin-3-yl)-1-(N-(2-fluoroethyl)sulfamoyl)-3-(2-isopropylphenyl)azetidine-3-carboxamide], the IC50 came out at 15 nM.

Regarding `CC(C)c1ccccc1C1(C(=O)Nc2cccnc2OC(F)F)CN(S(N)(=O)=O)C1` [Ex 15-6, N-(2-(difluoromethoxy)pyridin-3-yl)-3-(2-isopropylphenyl)-1-sulfamoylazetidine-3-carboxamide], the IC50 was 10 nM. Compared with the last compound, the IC50 is about 1.5-fold lower.

Turning to `COc1ccc(NC(=O)C2(c3ccccc3C(C)C)CN(S(N)(=O)=O)C2)c(OC)n1` [Ex 15-7, N-(2,6-dimethoxypyridin-3-yl)-3-(2-isopropylphenyl)-1-sulfamoylazetidine-3-carboxamide], the midpoint of inhibition, the IC50, lay at 4 nM.

The compound `CCOc1ccc(NC(=O)C2(c3ccccc3C(C)C)CN(S(N)(=O)=O)C2)c(OC)n1` [Ex 15-8, N-(6-ethoxy-2-methoxypyridin-3-yl)-3-(2-isopropylphenyl)-1-sulfamoylazetidine-3-carboxamide] returned an IC50 of 4 nM.

In the case of `CCCNS(=O)(=O)N1CC(C(=O)Nc2ccc(C)nc2OC(F)F)(c2ccccc2C(C)C)C1` [Ex 15-11, N-(2-(difluoromethoxy)-6-methylpyridin-3-yl)-3-(2-isopropylphenyl)-1-(N-propylsulfamoyl)azetidine-3-carboxamide], half-maximal inhibition (IC50) was put at 6 nM.

For the compound `Cc1ccc(NC(=O)C2(c3ccccc3C(C)C)CN(S(=O)(=O)NC(C)C)C2)c(OC(F)F)n1` [Ex 15-12, N-(2-(difluoromethoxy)-6-methylpyridin-3-yl)-3-(2-isopropylphenyl)-1-(N-isopropylsulfamoyl)azetidine-3-carboxamide], the half-inhibitory concentration (IC50) was 25 nM.

Consider `Cc1ccc(NC(=O)C2(c3ccccc3C(C)C)CN(S(=O)(=O)NC3CC3)C2)c(OC(F)F)n1` [Ex 15-13, 1-(N-cyclopropylsulfamoyl)-N-(2-(difluoromethoxy)-6-methylpyridin-3-yl)-3-(2-isopropylphenyl)azetidine-3-carboxamide], for which inhibition was half-maximal at 11 nM (IC50). Compared with the last compound, the IC50 is about 2.3-fold lower.

Take `CC(C)c1ccccc1C1(C(=O)Nc2cc(F)cnc2OC(F)F)CN(S(N)(=O)=O)C1` [Ex 15-15, N-(2-(difluoromethoxy)-5-fluoropyridin-3-yl)-3-(2-isopropylphenyl)-1-sulfamoylazetidine-3-carboxamide]: the IC50 was 10 nM.

In turn, `COc1nc(C)ccc1NC(=O)C1(c2ccccc2C(C)C)CN(S(N)(=O)=O)C1` [Ex 15-16, 3-(2-isopropylphenyl)-N-(2-methoxy-6-methylpyridin-3-yl)-1-sulfamoylazetidine-3-carboxamide] came in with an IC50 of 50 nM. This IC50 lies about 5-fold higher than the previous one.

For the compound `CCOc1nc(C)ccc1NC(=O)C1(c2ccccc2C(C)C)CN(S(N)(=O)=O)C1` [Ex 15-17, N-(2-ethoxy-6-methylpyridin-3-yl)-3-(2-isopropylphenyl)-1-sulfamoylazetidine-3-carboxamide], half-maximal inhibition (IC50) required 31 nM. Compared with the last compound, the IC50 is about 1.6-fold lower.

`Cc1ccc(NC(=O)C2(c3ccccc3C(C)C)CN(S(N)(=O)=O)C2)c(OC(C)C)n1` [Ex 15-18, N-(2-isopropoxy-6-methylpyridin-3-yl)-3-(2-isopropylphenyl)-1-sulfamoylazetidine-3-carboxamide] yielded an IC50 of 7 nM.

Compound `CC(=O)NS(=O)(=O)N1CC(C(=O)Nc2ccc(C)nc2OC(F)F)(c2ccccc2C(C)C)C1` [Ex 16-1, 1-(N-acetylsulfamoyl)-N-(2-(difluoromethoxy)-6-methylpyridin-3-yl)-3-(2-isopropylphenyl)azetidine-3-carboxamide] came in with an IC50 of 69 nM.

Compound `CC(=O)NS(=O)(=O)N1CC(C(=O)Nc2cccnc2OC(F)F)(c2ccccc2C(C)C)C1` [Ex 16-2, 1-(N-acetylsulfamoyl)-N-(2-(difluoromethoxy)pyridin-3-yl)-3-(2-isopropylphenyl)azetidine-3-carboxamide] came in with an IC50 of 158 nM.

The compound `CC(=O)NS(=O)(=O)CC(=O)N1CC(C(=O)Nc2ccc(C)nc2OC(F)F)(c2ccccc2C(C)C)C1` [Ex 16-3, 1-(2-(N-acetylsulfamoyl)acetyl)-N-(2-(difluoromethoxy)-6-methylpyridin-3-yl)-3-(2-isopropylphenyl)azetidine-3-carboxamide] showed a concentration for half-maximal inhibition (IC50) of 83 nM.

`CC(=O)NS(=O)(=O)N(C)CC(=O)N1CC(C(=O)Nc2ccc(C)nc2OC(F)F)(c2ccccc2C(C)C)C1` [Ex 16-5, 1-(N-(N-acetylsulfamoyl)-N-methylglycyl)-N-(2-(difluoromethoxy)-6-methylpyridin-3-yl)-3-(2-isopropylphenyl)azetidine-3-carboxamide]: it took 47 nM to reach half-maximal inhibition (IC50).

`COC(=O)CC(C)(C)NC(=O)N1CC(C(=O)Nc2ccc(C)nc2OC(F)F)(c2ccccc2C(C)C)C1` [Ex 17-1, Methyl 3-(3-((2-(difluoromethoxy)-6-methylpyridin-3-yl)carbamoyl)-3-(2-isopropylphenyl)azetidine-1-carboxamido)-3-methylbutanoate] yielded an IC50 of 18 nM.

In the case of `Cc1ccc(NC(=O)C2(c3ccccc3C(C)C)CN(C(=O)NC(C)(C)CC(=O)O)C2)c(OC(F)F)n1` [Ex 17-2, 3-(3-((2-(difluoromethoxy)-6-methylpyridin-3-yl)carbamoyl)-3-(2-isopropylphenyl)azetidine-1-carboxamido)-3-methylbutanoic acid], the concentration for half-maximal inhibition (IC50) is 12 nM.

On to `Cc1ccc(NC(=O)C2(c3ccccc3C(C)C)CCN(C(=O)NCc3c[nH]cn3)CC2)c(OC(F)F)n1` [Ex 17-3, N1-((1H-imidazol-4-yl)methyl)-N4-(2-(difluoromethoxy)-6-methylpyridin-3-yl)-4-(2-isopropylphenyl)piperidine-1,4-carboxamide], for which inhibition was half-maximal at 8 nM (IC50).

As to `Cc1ccc(NC(=O)C2(c3ccccc3C(C)C)CN(C(=O)NCC(=O)O)C2)c(OC(F)F)n1` [Ex 17-4, (3-((2-(difluoromethoxy)-6-methylpyridin-3-yl)carbamoyl)-3-(2-isopropylphenyl)azetidine-1-carbonyl)glycine], the IC50 was 34 nM.

In turn, `Cc1ccc(NC(=O)C2(c3ccccc3C(C)C)CN(C(=O)NCCC(=O)O)C2)c(OC(F)F)n1` [Ex 17-5, 3-(3-((2-(difluoromethoxy)-6-methylpyridin-3-yl)carbamoyl)-3-(2-isopropylphenyl)azetidine-1-carboxamido)propanoic acid] registered a half-inhibitory concentration (IC50) of 41 nM.

`COC(=O)[C@@H](NC(=O)N1CC(C(=O)Nc2ccc(C)nc2OC(F)F)(c2ccccc2C(C)C)C1)C(C)C` [Ex 17-6, methyl (3-((2-(difluoromethoxy)-6-methylpyridin-3-yl)carbamoyl)-3-(2-isopropylphenyl)azetidine-1-carbonyl)-L-valinate]: the IC50 amounted to 9 nM.

`Cc1ccc(NC(=O)C2(c3ccccc3C(C)C)CN(C(=O)N[C@H](C(=O)O)C(C)C)C2)c(OC(F)F)n1` [Ex 17-7, (3-((2-(difluoromethoxy)-6-methylpyridin-3-yl)carbamoyl)-3-(2-isopropylphenyl)azetidine-1-carbonyl)-L-valine] gave a concentration for half-maximal inhibition (IC50) of 26 nM.

Regarding `COC(=O)[C@H](C)NC(=O)N1CC(C(=O)Nc2ccc(C)nc2OC(F)F)(c2ccccc2C(C)C)C1` [Ex 17-8, methyl (3-((2-(difluoromethoxy)-6-methylpyridin-3-yl)carbamoyl)-3-(2-isopropylphenyl)azetidine-1-carbonyl)-L-alaninate], 4 nM corresponded to half-maximal inhibition (IC50).
